Here are results for one molecule from patent EP0124891A2, “Antimutagenic agent and method of inactivating the mutagenicity of foods and beverages by using said agent” (SUNTORY LIMITED, priority 1983, dated 1984).

Each structure is given as a SMILES string.

Data set [1] concerns Neuros^pera crassa. Particulars: cited from earlier work.
In data set [2] the test system is Salmonella typhimurium TA 100. Description: Mutagenicity and antimutagenic effect, Salmonella test (Ames), preincubation method, revertant colony count. Particulars: Salmonella typhimurium TA 100 (histidine-requiring), 48 h, pH 7.4.
Description: Histidine-requiring Salmonella typhimurium TA 100 (hereunder S. TA 100) was used.
Instant coffee powder was dissolved in distilled water. Predetermined amounts of wheat germ preparations were also dissolved in distilled water, and 50 µl of each solution was mixed with an equal amount of the aqueous coffee solution.
Roasted coffee beans (20 g) were extracted with hot distilled water (250 ml), and the extract was filtered through coffee filter paper No. 12 manufactured by Kalita Co., Ltd. The extract was freeze-dried, and after measuring the weight of the dry product, it was dissolved in distilled water. Predetermined amounts of wheat germ preparations were also dissolved in distilled water, and 50 µl of each solution was mixed with an equal amount of the aqueous solution of coffee concentrate. […]
To 100 µl of each of the samples prepared in (iii)(a) to (f), 500 µl of 0.1 M sodium phosphate buffer (pH 7.4) plus 100 µl of a culture of S. TA 100 strain were added. […] After incubation at 37°C for 48 hours, the number of colonies forming on the plate was counted as revertants. The percent inhibition of mutagenicity can be calculated by the following formula, if necessary: [formula]
A powder of extracted coffee beans (15 mg) as prepared by the method shown in I)(iii)(b) was dissolved in distilled water to make 50 µl. […] The mutagenicity of each mixture was determined by the method shown in I)(i).
For data set [3], the system named is mouse deodenum. The following applies: 0.1 % of hydrogen peroxide; cited from earlier work.
Data set [4] relates to human cells. Particulars: cited from earlier work.

As for `OO` [Hydrogen peroxide, hydrogen peroxide], in data set [1], the “mutagenicity to Neurospora crassa” value is on record as “mutagenic”. For the same molecule, the “mutagenicity to S. TA 100” value in data set [2] was 160 revertants/10^8 survivors/Pmole. Moreover, in data set [3], the carcinogenicity result was “proved to cause malignant tumors”. In data set [4], the “clastogenicity to human cells” value is “clastogenic”.
